Data: patent US20080004290A1, “Anti-Cancer Agents” (THE UNIVERSITY OF QUEENSLAND, priority 2003, published 2008)
Where two headings read alike, the source gives them in different places.

Legend:
Assay type in all cases: cell-based, human
[1] = tested on: NFF, neonatal foreskin fibroblasts; test: Cell survival assay (clonogenic survival, SRB), normal cells; conditions: Homo sapiens, Fibroblast, NFF normal fibroblasts; 24 h with compound, further 72 h growth, SRB; read-out: IC50 (uM) NFF
In short: (§1)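 Cells (5×10^3/well, RPMI 1640 with 10% FCS) treated 24 h with compound at 0.01-10 μg/mL, then washed and grown 72 h drug-free at 37 °C, 5% CO2. Survival read by SRB staining after methylated-spirit fixation, absorbance 564 nm.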

MM96L melanoma cells = test: Cell survival assay (clonogenic survival, SRB); conditions: for IC50: Homo sapiens, MM96L; for SI (Selectivity Index = IC50 (NFF)/IC50 (MM96L)): NFF vs MM96L; for Selectivity Index MM96L: Table 13, S enantiomer, IC50(NFF)/IC50(cancer cell line)
In short: as §1

[2] = tested on: CI-80-13S ovarian cancer cells; test: Cell survival assay (SRB); conditions: for IC50: Homo sapiens, read-out: Cytoselectivities (nM) CI80-13S; for Selectivity Index CI80-13S: Table 13, S enantiomer, IC50(NFF)/IC50(cancer cell line)
Procedure: (§2) Cell Lines and Culture Medium. All cell lines used in this study have been described previously (Parsons et al., 1986; Todaro et al., 1980; Glenn et al., 2004). All cell lines were cultured in 10% heat-inactivated foetal calf serum (CSL, Australia) in RPMI 1640 medium supplemented with 100 U/mL penicillin, 100 μg/mL streptomycin, and 3 mM HEPES at 5% CO2, 99% humidity at 37° C. Primary human fibroblasts were obtained from neonatal foreskins and cultured in the above medium. Routine mycoplasma tests were performed using Hoechst stain^i and were always negative.
(§3) Cell Survival Assay. Cells were plated into 96-well microtitre plates at 5×10^3 cells/well, and allowed to adhere overnight. Test compounds were added to culture medium at the indicated concentrations, and plates incubated in the above conditions for 24 hours. Following this incubation period, compounds and media were removed, and replaced with fresh culture medium. Cells were then grown for a further 72 hours before assay using sulforhodamine B (SRB; Sigma, St. Louis, Mo.) as previously described. Briefly, the culture medium was removed from the 96-well microtitre plates and the plates washed twice with phosphate buffered saline (PBS), before the cells were fixed with methylated spirits for 15 minutes. The plates were then rinsed with tap water and the fixed cells stained with 50 μL/well of SRB solution (0.4% sulforhodamine B (w/v) in 1% (v/v) acetic acid) over a period of 1 hour. The SRB solution was then removed from the wells and the plates rapidly washed two times with 1% (v/v) acetic acid. Protein bound dye was then solubilised with the addition of 100 μL of 10 mM unbuffered Tris, and incubated for 15 min at 25° C. Plates were then read at 564 nm on a VERSA max tunable microplate reader (Molecular Devices, Sunnyvale, Calif.).
(§4) For comparison their results are also shown for MM96L and NFF cell lines.

[3] = tested on: DU145 prostate cancer cells; test: Cell survival assay (SRB); conditions: for IC50: Homo sapiens, DU-145, DU145 (prostate), read-out: Cytoselectivities (nM) DU145; for Selectivity Index DU145: Table 13, S enantiomer, IC50(NFF)/IC50(cancer cell line)
Procedure: as §2, §3, §4

JAM ovarian cancer cells = test: Cell survival assay (SRB); conditions: for IC50: Homo sapiens, read-out: Cytoselectivities (nM) JAM; for Selectivity Index JAM: Table 13, S enantiomer, IC50(NFF)/IC50(cancer cell line)
Procedure: as §2, §3, §4

[4] = tested on: MCF-7 breast cancer cells; test: Cell survival assay (SRB); conditions: for IC50: Homo sapiens, MCF7, MCF-7 (breast), read-out: Cytoselectivities (nM) MCF-7; for Selectivity Index MCF-7: Table 13, S enantiomer, IC50(NFF)/IC50(cancer cell line)
Procedure: as §2, §3, §4

SkMel28 melanoma cells = test: Cell survival assay (SRB); conditions: for IC50: Homo sapiens, SK-MEL-28 (melanoma), read-out: Cytoselectivities (nM) SK-MEL-28; for Selectivity Index SK-MEL-28: Table 13, S enantiomer, IC50(NFF)/IC50(cancer cell line)
Procedure: as §2, §3, §4

A549 cells = test: Cell survival assay (SRB); conditions: for IC50: Homo sapiens, A549 (lung), read-out: Cytoselectivities (nM) A549; for Selectivity Index A549: Table 13, S enantiomer, IC50(NFF)/IC50(cancer cell line)
Procedure: as §2, §3

Col208 cells = test: Cell survival assay (SRB); conditions: for IC50: Homo sapiens, Col208 (colon), read-out: Cytoselectivities (nM) Col208; for Selectivity Index Col208: Table 13, S enantiomer, IC50(NFF)/IC50(cancer cell line)
Procedure: as §2, §3

H520 cells = test: Cell survival assay (SRB); conditions: for IC50: Homo sapiens, NCI-H520, read-out: Cytoselectivities (nM) H520; for Selectivity Index H520: Table 13, S enantiomer, IC50(NFF)/IC50(cancer cell line)
Procedure: as §2, §3

HOP62 cells = test: Cell survival assay (SRB); conditions: for IC50: Homo sapiens, HOP-62, HOP62 (lung), read-out: Cytoselectivities (nM) HOP62; for Selectivity Index HOP62: Table 13, S enantiomer, IC50(NFF)/IC50(cancer cell line)
Procedure: as §2, §3

HT29 cells = test: Cell survival assay (SRB); conditions: for IC50: Homo sapiens, HT-29, HT29 (colon), read-out: Cytoselectivities (nM) HT29; for Selectivity Index HT29: Table 13, S enantiomer, IC50(NFF)/IC50(cancer cell line)
Procedure: as §2, §3

PC-3 cells = test: Cell survival assay (SRB); conditions: for IC50: Homo sapiens, PC-3, read-out: Cytoselectivities (nM) PC-3; for Selectivity Index PC-3: Table 13, S enantiomer, IC50(NFF)/IC50(cancer cell line)
Procedure: as §2, §3

SK-MEL-5 cells = test: Cell survival assay (SRB); conditions: for IC50: Homo sapiens, SK-MEL-5, read-out: Cytoselectivities (nM) SK-MEL-5; for Selectivity Index SK-MEL-5: Table 13, S enantiomer, IC50(NFF)/IC50(cancer cell line)
Procedure: as §2, §3

T-47D cells = test: Cell survival assay (SRB); conditions: for IC50: Homo sapiens, T47D, read-out: Cytoselectivities (nM) T-47D; for Selectivity Index T-47D: Table 13, S enantiomer, IC50(NFF)/IC50(cancer cell line)
Procedure: as §2, §3

[5] = MM96L melanoma, 24 h with compound, further 72 h growth, SRB, read-out: IC50 (uM) MM96L
[6] = Table 12, read-out: Cytoselectivities (nM) MM96L
[7] = most preferred compounds, exemplary examples, read-out: potency of IC50 against the MM96 melanoma cells

Structure (SMILES)	IC50 [1]	IC50 (MM96L melanoma cells; [5])	IC50 (MM96L melanoma cells; [6])	SI (Selectivity Index = IC50 (NFF)/IC50 (MM96L)) (MM96L melanoma cells)	Selectivity Index MM96L (MM96L melanoma cells)	IC50 [2]	Selectivity Index CI80-13S [2]	IC50 [3]	Selectivity Index DU145 [3]	IC50 (JAM ovarian cancer cells)	Selectivity Index JAM (JAM ovarian cancer cells)	IC50 [4]	Selectivity Index MCF-7 [4]	IC50 (SkMel28 melanoma cells)	Selectivity Index SK-MEL-28 (SkMel28 melanoma cells)	IC50 (A549 cells)	Selectivity Index A549 (A549 cells)	IC50 (Col208 cells)	Selectivity Index Col208 (Col208 cells)	IC50 (H520 cells)	further results
O=C(CCCCC[C@H](NC(=O)c1cc2ccccc2[nH]1)C(=O)Nc1cccc2cccnc12)NO [Example 132]	0.337 µM	0.021 µM	0.018 µM	16	19	20 nM	17	22 nM	15	48 nM	7	19 nM	18	33 nM	10	69 nM	5	102 nM	3	26 nM	IC50 (MM96L melanoma cells; [7]): ≤ 0.5 µM; Selectivity Index H520 (H520 cells): 13; IC50 (HOP62 cells): 63 nM; Selectivity Index HOP62 (HOP62 cells): 5; IC50 (HT29 cells): 79 nM; Selectivity Index HT29 (HT29 cells): 4; IC50 (PC-3 cells): 148 nM; Selectivity Index PC-3 (PC-3 cells): 2; IC50 (SK-MEL-5 cells): 18 nM; Selectivity Index SK-MEL-5 (SK-MEL-5 cells): 18; IC50 (T-47D cells): 19 nM; Selectivity Index T-47D (T-47D cells): 18
CN(C)c1ccc(C(=O)N[C@@H](CCCCCC(=O)NO)C(=O)Nc2cccc3cccnc23)cc1 [Example 126]	0.57 ± 0.07 µM	0.02 ± 0.01 µM	0.051 µM	28	11	65 nM	9	61 nM	9	85 nM	7	35 nM	16	73 nM	8	148 nM	4	223 nM	1.5	63 nM	IC50 (MM96L melanoma cells; [7]): ≤ 0.5 µM; Selectivity Index H520 (H520 cells): 9; IC50 (HOP62 cells): 137 nM; Selectivity Index HOP62 (HOP62 cells): 4; IC50 (HT29 cells): 178 nM; Selectivity Index HT29 (HT29 cells): 3; IC50 (PC-3 cells): 220 nM; Selectivity Index PC-3 (PC-3 cells): 3; IC50 (SK-MEL-5 cells): 32 nM; Selectivity Index SK-MEL-5 (SK-MEL-5 cells): 18; IC50 (T-47D cells): 45 nM; Selectivity Index T-47D (T-47D cells): 13
CC(C)COC(=O)N[C@@H](CCCCCC(=O)NO)C(=O)Nc1cccc2cccnc12 [Example 149]	0.081 µM	0.023 µM	0.116 µM	3.5	0.7	149 nM	0.5	130 nM	0.6	221 nM	0.4	138 nM	0.6	170 nM	0.5	291 nM	0.3	395 nM	0.2	129 nM	Selectivity Index H520 (H520 cells): 0.6; IC50 (HOP62 cells): 267 nM; Selectivity Index HOP62 (HOP62 cells): 0.3; IC50 (HT29 cells): 360 nM; Selectivity Index HT29 (HT29 cells): 0.2; IC50 (PC-3 cells): 651 nM; Selectivity Index PC-3 (PC-3 cells): 0.1; IC50 (SK-MEL-5 cells): 100 nM; Selectivity Index SK-MEL-5 (SK-MEL-5 cells): 0.8; IC50 (T-47D cells): 198 nM; Selectivity Index T-47D (T-47D cells): 0.4
O=C(/C=C/c1ccccc1)N[C@@H](CCCCCC(=O)NO)C(=O)Nc1cccc2cccnc12 [Example 146]	1.24 µM	0.021 µM	0.02 µM	58.9	63	28 nM	44	30 nM	41	49 nM	25	17 nM	71	37 nM	34	73 nM	17	141 nM	9	27 nM	IC50 (MM96L melanoma cells; [7]): ≤ 0.5 µM; Selectivity Index H520 (H520 cells): 46; IC50 (HOP62 cells): 65 nM; Selectivity Index HOP62 (HOP62 cells): 19; IC50 (HT29 cells): 99 nM; Selectivity Index HT29 (HT29 cells): 13; IC50 (PC-3 cells): 109 nM; Selectivity Index PC-3 (PC-3 cells): 11; IC50 (SK-MEL-5 cells): 29 nM; Selectivity Index SK-MEL-5 (SK-MEL-5 cells): 43; IC50 (T-47D cells): 20 nM; Selectivity Index T-47D (T-47D cells): 63
